According to ChEMBL document CHEMBL4811289, “Antibacterial and Cytotoxic Phenyltetracenoid Polyketides from Streptomyces morookaense” (J Nat Prod, 2021):
Converted amounts (≈) assume the structure as drawn. “And” between values parts separate entries of the source, which are not always exact repeats. Equal entries are not always repeated.

Columns and labels:
Enterococcus faecium [1] = test: Antibacterial activity against vancomycin-resistant Enterococcus faecium incubated for 6 to 8 hrs by MABA; format: functional; conditions: time 6-8 hrs
Enterococcus faecium [2] = test: Antibacterial activity against vancomycin-sensitive Enterococcus faecium incubated for 6 to 8 hrs by MABA; format: functional; conditions: time 6-8 hrs
MCF7 = test: Cytotoxicity against human MCF7 cells assessed as reduction in cell viability after 72 hrs by MTT assay; format: functional, cell-based
HepG2 = test: Cytotoxicity against human HepG2 cells assessed as reduction in cell viability after 72 hrs by MTT assay; format: functional, cell-based
A549 = test: Cytotoxicity against human A549 cells assessed as reduction in cell viability after 72 hrs by MTT assay; format: functional, cell-based
Vero = test: Cytotoxicity against African green monkey Vero cells assessed as reduction in cell viability after 72 hrs by MTT assay; format: cell-based, Chlorocebus sabaeus
Staphylococcus aureus [3] = test: Antibacterial activity against methicillin-sensitive Staphylococcus aureus incubated for 6 to 8 hrs by MABA; format: functional; conditions: time 6-8 hrs
HeLa = test: Cytotoxicity against human HeLa cells assessed as reduction in cell viability after 72 hrs by MTT assay; format: functional, cell-based
Staphylococcus aureus [4] = test: Antibacterial activity against methicillin-resistant Staphylococcus aureus ATCC 6548 incubated for 6 to 8 hrs by MABA; format: functional; conditions: time 6-8 hrs
[5] = Chlorocebus sabaeus, Vero, 72 h

COc1cc(C)c(-c2cc(O)cc3cc4c(c(O)c23)C(=O)c2c(cc(O)c(Cl)c2O)C4(C)C)c(O)c1
MIC (Enterococcus faecium [1]): 10 µg/mL (≈ 19.7 µM) | MIC (Enterococcus faecium [2]): 2.5 µg/mL (≈ 4.93 µM) | IC50 (MCF7; Homo sapiens, MCF7, 72 h): 40.3 µM | IC50 (HepG2; Homo sapiens, HepG2, 72 h): 11.9 µM | IC50 (A549; Homo sapiens, A549, 72 h): 13.3 µM | IC50 (Vero; [5]): 33 µM | MIC (Staphylococcus aureus [3]): 5 µg/mL (≈ 9.86 µM) | IC50 (HeLa; Homo sapiens, HeLa, 72 h): 15.2 µM | MIC (Staphylococcus aureus [4]): 5 µg/mL (≈ 9.86 µM)

COC1=CC(=O)C(c2cc(OC)cc3cc4c(c(O)c23)C(=O)c2c(cc(OC)c(Cl)c2O)C4(C)C)=C(C)C1=O
MIC (Enterococcus faecium [2]): > 10 µg/mL | IC50 (MCF7; Homo sapiens, MCF7, 72 h): > 50 µM | IC50 (HepG2; Homo sapiens, HepG2, 72 h): > 50 µM | IC50 (A549; Homo sapiens, A549, 72 h): > 50 µM | IC50 (Vero; [5]): > 50 µM | MIC (Staphylococcus aureus [3]): > 10 µg/mL | IC50 (HeLa; Homo sapiens, HeLa, 72 h): > 50 µM | MIC (Staphylococcus aureus [4]): > 10 µg/mL

COc1cc(-c2c(O)cc(O)c(Cl)c2C)c2c(O)c3c(cc2c1)C(C)(C)c1cc(OC)c(Cl)c(O)c1C3=O
MIC (Enterococcus faecium [1]): 5 µg/mL (≈ 9 µM) | MIC (Enterococcus faecium [2]): 1.25 µg/mL (≈ 2.25 µM) | IC50 (MCF7; Homo sapiens, MCF7, 72 h): 10.7 µM | IC50 (HepG2; Homo sapiens, HepG2, 72 h): 7.3 µM | IC50 (A549; Homo sapiens, A549, 72 h): 6.4 µM | IC50 (Vero; [5]): 13.7 µM | MIC (Staphylococcus aureus [3]): 2.5 µg/mL (≈ 4.5 µM) | IC50 (HeLa; Homo sapiens, HeLa, 72 h): 5.3 µM | MIC (Staphylococcus aureus [4]): 1.25 µg/mL (≈ 2.25 µM)

COc1cc2c(c(O)c1Cl)C(=O)c1c(cc3cc(O)cc(-c4c(C)c(Cl)c(O)c(Cl)c4OC)c3c1O)C2(C)C
IC50 (MCF7; Homo sapiens, MCF7, 72 h): 18.4 µM | IC50 (HepG2; Homo sapiens, HepG2, 72 h): 4.7 µM | IC50 (A549; Homo sapiens, A549, 72 h): 5.4 µM | IC50 (Vero; [5]): 11.1 µM | IC50 (HeLa; Homo sapiens, HeLa, 72 h): 4.8 µM

COc1c(Cl)c(C)c(-c2cc(O)cc3cc4c(c(O)c23)C(=O)c2c(cc(O)c(Cl)c2O)C4(C)C)c(O)c1Cl
MIC (Enterococcus faecium [1]): 1.25 µg/mL (≈ 2.17 µM) | MIC (Enterococcus faecium [2]): 1.25 µg/mL (≈ 2.17 µM) | IC50 (MCF7; Homo sapiens, MCF7, 72 h): 14.4 µM | IC50 (HepG2; Homo sapiens, HepG2, 72 h): 7.7 µM | IC50 (A549; Homo sapiens, A549, 72 h): 5 µM | IC50 (Vero; [5]): 12.4 µM | MIC (Staphylococcus aureus [3]): 1.25 µg/mL (≈ 2.17 µM) | IC50 (HeLa; Homo sapiens, HeLa, 72 h): 6 µM | MIC (Staphylococcus aureus [4]): 1.25 µg/mL (≈ 2.17 µM)

COc1cc2c(c(O)c1Cl)C(=O)c1c(cc3c(Cl)c(O)cc(-c4c(C)c(Cl)c(OC)c(Cl)c4O)c3c1O)C2(C)C
MIC (Enterococcus faecium [1]): 5 µg/mL (≈ 8.01 µM) | MIC (Enterococcus faecium [2]): 2.5 µg/mL (≈ 4 µM) | IC50 (MCF7; Homo sapiens, MCF7, 72 h): 13.9 µM | IC50 (HepG2; Homo sapiens, HepG2, 72 h): 8.8 µM | IC50 (A549; Homo sapiens, A549, 72 h): 5.6 µM | IC50 (Vero; [5]): 12 µM | MIC (Staphylococcus aureus [3]): 2.5 µg/mL (≈ 4 µM) | IC50 (HeLa; Homo sapiens, HeLa, 72 h): 9.9 µM | MIC (Staphylococcus aureus [4]): 2.5 µg/mL (≈ 4 µM)

COc1cc(C)c(-c2cc(O)cc3cc4c(c(O)c23)C(=O)c2c(cc(OC)c(Cl)c2O)C4(C)C)c(O)c1
IC50 (MCF7; Homo sapiens, MCF7, 72 h): 3 µM | IC50 (HepG2; Homo sapiens, HepG2, 72 h): 3.2 µM | IC50 (A549; Homo sapiens, A549, 72 h): 3.4 µM | IC50 (Vero; [5]): 3.3 µM | IC50 (HeLa; Homo sapiens, HeLa, 72 h): 2.9 µM

COc1cc(C)c(C(=O)c2c(CC(C)=O)cc3c(c2O)C(=O)c2c(OC)cc(OC)cc2C3(C)C)c(OC)c1
MIC (Enterococcus faecium [2]): > 10 µg/mL | IC50 (MCF7; Homo sapiens, MCF7, 72 h): 29.3 µM | IC50 (HepG2; Homo sapiens, HepG2, 72 h): > 50 µM | IC50 (A549; Homo sapiens, A549, 72 h): 13.1 µM | IC50 (Vero; [5]): > 50 µM | MIC (Staphylococcus aureus [3]): > 10 µg/mL | IC50 (HeLa; Homo sapiens, HeLa, 72 h): > 50 µM | MIC (Staphylococcus aureus [4]): > 10 µg/mL

COc1cc2c(c(O)c1Cl)C(=O)c1c(cc3c(Cl)c(O)cc(-c4c(O)cc(O)c(Cl)c4C)c3c1O)C2(C)C
IC50 (MCF7; Homo sapiens, MCF7, 72 h): 4.7 µM | IC50 (HepG2; Homo sapiens, HepG2, 72 h): 5.3 µM | IC50 (A549; Homo sapiens, A549, 72 h): 3.1 µM | IC50 (Vero; [5]): 14.6 µM | IC50 (HeLa; Homo sapiens, HeLa, 72 h): 4.7 µM

COc1cc(C)c(-c2cc(O)c(Cl)c3cc4c(c(O)c23)C(=O)c2c(cc(OC)c(Cl)c2O)C4(C)C)c(O)c1
IC50 (MCF7; Homo sapiens, MCF7, 72 h): 3.6 µM | IC50 (HepG2; Homo sapiens, HepG2, 72 h): 3.2 µM | IC50 (A549; Homo sapiens, A549, 72 h): 2.8 µM | IC50 (Vero; [5]): 9 µM | IC50 (HeLa; Homo sapiens, HeLa, 72 h): 3.3 µM

COc1cc(C)c(-c2nc(C)cc3cc4c(c(O)c23)C(=O)c2c(OC)cc(OC)cc2C4(C)C)c(OC)c1
MIC (Enterococcus faecium [2]): > 10 µg/mL | IC50 (MCF7; Homo sapiens, MCF7, 72 h): 5.9 µM | IC50 (MCF7; mcf7): 11.2 µM | IC50 (HepG2; Homo sapiens, HepG2, 72 h): 3.4 µM | IC50 (HepG2; hepg2): 3.8 µM | IC50 (A549; Homo sapiens, A549, 72 h): 5.1 µM | IC50 (A549; a549): 6.6 µM | IC50 (Vero; vero): 2.7 µM and 7.5 µM | MIC (Staphylococcus aureus [3]): > 10 µg/mL | IC50 (HeLa; Homo sapiens, HeLa, 72 h): 3.7 µM | IC50 (HeLa; hela): 4.6 µM | MIC (Staphylococcus aureus [4]): > 10 µg/mL

COc1cc(C)c(-c2cc(O)c(Cl)c3cc4c(c(O)c23)C(=O)c2c(cc(O)c(Cl)c2O)C4(C)C)c(O)c1
MIC (Enterococcus faecium [1]): 5 µg/mL (≈ 9.24 µM) | MIC (Enterococcus faecium [2]): 2.5 µg/mL (≈ 4.62 µM) | IC50 (MCF7; Homo sapiens, MCF7, 72 h): 21.7 µM | IC50 (HepG2; Homo sapiens, HepG2, 72 h): 9.4 µM | IC50 (A549; Homo sapiens, A549, 72 h): 8.9 µM | IC50 (Vero; [5]): 47 µM | MIC (Staphylococcus aureus [3]): 1.25 µg/mL (≈ 2.31 µM) | IC50 (HeLa; Homo sapiens, HeLa, 72 h): 11 µM | MIC (Staphylococcus aureus [4]): 1.25 µg/mL (≈ 2.31 µM)

COc1cc2c(c(O)c1Cl)C(=O)c1c(cc3cc(O)cc(-c4c(O)cc(O)c(Cl)c4C)c3c1O)C2(C)C
IC50 (MCF7; Homo sapiens, MCF7, 72 h): 17.6 µM | IC50 (HepG2; Homo sapiens, HepG2, 72 h): 11.7 µM | IC50 (A549; Homo sapiens, A549, 72 h): 13.1 µM | IC50 (Vero; [5]): 14.6 µM | IC50 (HeLa; Homo sapiens, HeLa, 72 h): 15 µM

COc1cc(O)c(-c2cc(O)cc3cc4c(c(O)c23)C(=O)c2c(cc(OC)c(Cl)c2O)C4(C)C)c(C)c1Cl
IC50 (MCF7; Homo sapiens, MCF7, 72 h): 3.1 µM | IC50 (HepG2; Homo sapiens, HepG2, 72 h): 3.7 µM | IC50 (A549; Homo sapiens, A549, 72 h): 2.6 µM | IC50 (Vero; [5]): 3.5 µM | IC50 (HeLa; Homo sapiens, HeLa, 72 h): 3.7 µM

COc1cc2c(c(O)c1Cl)C(=O)c1c(cc3c(Cl)c(O)cc(-c4c(C)c(Cl)c(O)c(Cl)c4O)c3c1O)C2(C)C
IC50 (MCF7; Homo sapiens, MCF7, 72 h): 18.1 µM | IC50 (HepG2; Homo sapiens, HepG2, 72 h): 9.8 µM | IC50 (A549; Homo sapiens, A549, 72 h): 7 µM | IC50 (Vero; [5]): 27.3 µM | IC50 (HeLa; Homo sapiens, HeLa, 72 h): 14.3 µM
